Results as given in patent US20230414567A1, “METHODS OF TREATING CONDITIONS RELATED TO THE S1P1 RECEPTOR” (Arena Pharmaceuticals, Inc., priority 2020, published 2023).

Legend:
[1] = system: patients with moderate to severe atopic dermatitis; test: Phase 2 randomized, double-blind, placebo-controlled study: efficacy (EASI, vIGA, pruritus NRS, patient-reported outcomes); type: in vivo, human; settings: for reduction in EASI from baseline to week 12: 12 weeks (n=47); for delta versus placebo in vIGA 0 or 1 response at week 12: p<0.05
Description: A Phase 2, multicenter, randomized, double-blind, placebo-controlled study was conducted to assess the safety and efficacy of etrasimod in patients with moderate to severe atopic dermatitis. The primary endpoint measured was percent change in Eczema Area and Severity Index (EAST) from baseline to week 12, followed by a 4-week follow-up observation period. Secondary endpoints include the proportion of participants achieving EASI-75, proportion of participants with a validated Investigator Global Assessment (vIGA) 0 to 1, and percent change in peak pruritis. The trial enrolled approximately 140 patients and was conducted in study sites across the United States, Canada and Australia. An open-label extension of the trial is ongoing. The study included multiple periods: (i) up to a 4-week screening period (to determine subject eligibility); (ii) a 12-week double-blind treatment period with a 4-week safety follow-up period; and (iii) a 52-week open-label extension period followed by a 4-week safety follow-up period. Subjects with chronic AD for at least one year (as defined by Hanifin and Rajka criteria (Hanifin 1980)) despite optimized skin care (e.g., use of emollients, avoidance of irritants) whose disease is not adequately controlled with topical therapies, or for whom those therapies are not advisable, were equally randomized (1:1:1 ratio) to receive etrasimod (1 or 2 mg) or placebo. Etrasimod 1 or 2 mg tablets or matching placebo tablets were taken orally once daily during the double-blind treatment period. Etrasimod 2 mg tablets are taken orally once daily during the open-label extension period. There is no reference therapy (no placebo) during the open-label extension period. Inclusion Criteria: Subjects must meet ALL of the following inclusion criteria to be eligible for enrollment into the study. • 1. Men or women between ≥18 and ≤70 years of age at the time of informed consent. • 2. Chronic AD, defined by Hanifin and Rajka criteria (Hanifin 1980), that has been present for at least one year prior to the screening visit. • 3. Eczema Area and Severity Index (EAST)≥12 at the screening visit and ≥16 at the baseline visit. • 4. vIGA score≥3 (on the 0 to 4 vIGA scale, in which 3=moderate and 4=severe) involvement at the screening and baseline visits. • 5. Body surface area (BSA)≥10% of AD involvement at the screening and baseline visits. • 6. Recent history (within 6 months prior to the screening visit) of inadequate response to treatment with topical medications, or when topical treatments are otherwise medically inadvisable (e.g., because of important side effects or safety risks), which can be documented by medical records or by the history provided to the investigator by the subject despite optimized skin care (.e., avoidance of irritants, use of emollients). • 7. Willing to apply a dose of topical emollient/moisturizer at least once daily for ≥1 week prior to the baseline visit and willing to continue daily application over the course of the study without change (i.e., type, frequency, application). • 8. Willing and able to comply with all clinic visits and study-related procedures and understand and complete study-related questionnaires. • 9. Provide signed informed consent prior to conducting any procedures. Efficacy was assessed by changes in AD severity using EASI, vIGA, SCORing Atopic Dermatitis (SCORAD), and BSA. Symptoms of itch were assessed using the pruritus numeric rating scale (NRS). Patient-reported outcomes will also be assessed using the Dermatology Life Quality Index (DLQI), Patient Oriented Eczema Measure (POEM), and Patient Global Assessment (PGA).

[2] = system: patients with moderate to severe atopic dermatitis; test: Phase 2 atopic dermatitis study: adverse events and tolerability; type: in vivo, human
heart rate = test: Phase 2 atopic dermatitis study: heart rate effects after first dose; type: in vivo, human; settings: for placebo corrected maximal mean heart rate decrease from baseline: 2 hours after first dose
From the text: (§1) The study included multiple periods: (i) up to a 4-week screening period (to determine subject eligibility); (ii) a 12-week double-blind treatment period with a 4-week safety follow-up period; and (iii) a 52-week open-label extension period followed by a 4-week safety follow-up period. Subjects with chronic AD for at least one year (as defined by Hanifin and Rajka criteria (Hanifin 1980)) despite optimized skin care (e.g., use of emollients, avoidance of irritants) whose disease is not adequately controlled with topical therapies, or for whom those therapies are not advisable, were equally randomized (1:1:1 ratio) to receive etrasimod (1 or 2 mg) or placebo. Etrasimod 1 or 2 mg tablets or matching placebo tablets were taken orally once daily during the double-blind treatment period. Etrasimod 2 mg tablets are taken orally once daily during the open-label extension period. There is no reference therapy (no placebo) during the open-label extension period.
There was a decrease of 1.5 bpm in the 1 mg group and a decrease of 6.7 bpm in the 2 mg group. […] After the first dose, the heart rate differences across the 3 groups came together by week 1 and were similar from weeks 2-12. One participant in the 2 mg etrasimod group had transient 2nd degree AVB Type 1 which was self-limited, and asymptomatic. The participant went on to further dosing without any cardiac changes or symptoms.

lymphocyte count = test: Phase 2 atopic dermatitis study: absolute/peripheral lymphocyte count; type: in vivo, human
From the text: as §1
During the double-blind treatment period, etrasimod plasma concentrations and a complete blood count (CBC) including lymphocyte count were assessed on day 1 and before dosing at subsequent study visits. Study visits occurred at baseline, week 1, week 2, week 4, week 6, week 8, week 12, at the end of treatment, and at the week 16 follow-up visit. The absolute lymphocyte count (ALC) was included as part of the assessment.

UC patients = settings: 2 mg QD for 12 weeks; cited from earlier work
healthy adult subjects = settings: single doses up to 5 mg, repeated doses up to 4 mg QD; cited from earlier work

## O=C(O)C[C@H]1CCc2c1[nH]c1ccc(OCc3ccc(C4CCCC4)c(C(F)(F)F)c3)cc21 [etrasimod, (R)-2-(7-(4-cyclopentyl-3-(trifluoromethyl)benzyloxy)-1,2,3,4-tetrahydrocyclopenta[b]indol-3-yl)acetic acid]
[1]; 1 mg once daily, week 12
  patients achieving EASI-75: 27.7%
  patients achieving vIGA of 0 or 1 and a reduction from baseline of >=2 points at week 12: 14.9%
[1]; 1 mg orally once daily
  reduction in EASI from baseline to week 12: 58.7%
[1]; 1 mg, week 12, p=0.61 vs placebo
  proportion of patients with decrease in pruritus >=4 points at week 12: 32.5%
[1]; 2 mg dose group, week 4
  improvement in EASI from baseline to week 4: statistically significant improvement
  improvement in pruritis at week 4: statistically significant improvement
  proportion of patients who achieved EASI-75 at week 4: statistically significant improvement
[1]; 2 mg group vs placebo
  delta versus placebo in vIGA 0 or 1 response at week 12: 16.8%
[1]; 2 mg group without interruptions, weeks 4 to 12
  percent change in EASI over time versus placebo: significant at 4 weeks
[1]; 2 mg group without study interruptions
  patients achieving EASI-75 at week 12: 42.1%
[1]; 2 mg group without study interruptions (38 participants)
  patients achieving vIGA of 0 or 1 and reduction from baseline >=2 points at week 12: 36.8%
[1]; 2 mg group without study interruptions vs placebo
  delta versus placebo in vIGA 0 or 1 response at week 12: 23.8%
[1]; 2 mg once daily, week 12
  patients achieving EASI-75: 38.3%
  patients achieving vIGA of 0 or 1 and a reduction from baseline of >=2 points at week 12: 29.8%
[1]; 2 mg orally once daily
  reduction in EASI from baseline to week 12: 57.2%
[1]; 2 mg patients with dose interruption, after restart
  treatment response after restart of treatment: recaptured
[1]; 2 mg patients with dose interruption, to week 12
  EASI change from baseline in patients who ceased then reinitiated treatment: improved rapidly after resumption
[1]; 2 mg, over 12 weeks
  patient-reported and clinician-assessed outcomes versus placebo: improved patient-reported outcomes and clinician-assessed outcomes versus placebo
[1]; 2 mg, week 12
  proportions of patients achieving vIGA score of 0 or 1, DLQI and POEM versus placebo: significantly greater proportions
[1]; 2 mg, week 12, p=0.15 vs placebo
  proportion of patients with decrease in pruritus >=4 points at week 12: 42.1%
[1]; etrasimod group without interruptions
  pruritis NRC changes over time versus placebo: statistically significant from weeks 2-8
[2]; 1 mg and 2 mg, 12-week double-blind period
  tolerability: well tolerated
[2]; 2 mg treatment group
  cases of dyspnea: one case
[2]; double-blind treatment period
  adverse events related to heart rate: no adverse events related to heart rate
  cases of macular edema: no cases
  conjunctivitis, acne, venous thromboembolic events, opportunistic or serious infections: no reports
Heart rate; 1 mg and 2 mg groups, after first dose
  blood pressure changes or symptoms associated with heart rate changes: not associated with any blood pressure changes or symptoms
Heart rate; 1 mg group
  placebo corrected maximal mean heart rate decrease from baseline: 1.5 bpm
Heart rate; 2 mg group
  placebo corrected maximal mean heart rate decrease from baseline: 6.7 bpm
Heart rate; 2 mg group, self-limited, asymptomatic
  participants with transient 2nd degree AVB Type 1: One
Lymphocyte count; 2 mg group, between weeks 4 and 8
  patients with ALC measurement of Grade 3 (between 0.2x10e9 and 0.5x10e9 cells/L): nine
Lymphocyte count; 2 mg group, week 2
  maximal reduction in the peripheral lymphocyte count: 43.6%
Lymphocyte count; 2 mg patients with dose interruption, between weeks 4 and 8
  lymphocyte count after treatment withdrawal: rapid rebound in lymphocyte count
UC patients
  endoscopic and symptomatic improvements versus placebo: clinically meaningful and statistically significant endoscopic and symptomatic improvements
Healthy adult subjects
  safety and tolerability in clinical trials: safe and well-tolerated
